# In patent US10913773B2, “Bicyclic peptidyl inhibitor of tumor necrosis factor-alpha” (Ohio State Innovation Foundation, priority 2016, dated 2021):
# Tested on: TNFα-induced JNK phosphorylation
# Assay: Immunoblot of TNFα-induced JNK phosphorylation in WEHI-13VAR cells
# Type: cell-based
# Conditions: TNFα with increasing peptide concentrations (0-20 μM); total JNK unchanged
# Experimental: WEHI-13VAR cells were cultured in full growth media (RPMI, 5% FBS, 1% Pen/Strep) in 12-well plates to reach 80% confluence. TNFα (5 ng/mL final concentration) and varying concentrations of peptide inhibitor (0-6 μM) were pre-incubated in 0.5 mL of the growth medium for 30 min in the CO2 incubator. The mixture was then used to treat the cells at 37° C. and in the presence of 5% CO2. After 1.5 h, the solution was removed and the cells were washed with cold DPBS twice. The cells were lysed in 50 μL of lysis buffer (50 mM Tris, pH 7.4, 150 mM NaCl, 1% NP-40, and 5% glycerol) containing a protease inhibitor cocktail (Complete mini, Roche, product number 04693159001) and a phosphatase inhibitor cocktail (PhosSTOP, Roche, product number 04906845001). After incubation on ice for 30 min, the cell lysate was centrifuged at 15,000 rpm for 10 min in a microcentrifuge. An equal volume of 2×SDS-loading buffer was added to the supernatant. The total cellular proteins were separated by SDS-PAGE and transferred electrophoretically to a nitrocellulose membrane, which was subsequently immunoblotted using anti-JNK and anti-p-JNK Thr183/Tyr185 antibodies (both from Santa Cruz Biotechnology). The same samples were also separated on a different SDS-PAGE gel and stained by Coomassie brilliant blue to check the sample loading in all lanes. […]
smiles,measurement,value
CC(=O)[C@@H]1CCCN(C(=O)[C@@H](Cc2c[nH]cn2)NC(=O)C(N)C(C)C)C1 (stereo partly shown) [Compound C1-74-2],p-JNK level,decreased with the C1-74-2 concentration
